Results published in article PMC9681850, “Structural basis of synthetic agonist activation of the nuclear receptor REV-ERB” (Nature Communications, 2022).
Values joined by “and” are separate entries in the source; they are usually repeats but may differ in a detail not shown here. Equal values may be shown once.

Key:
C2C12 cells = experiment: relative gene expression of REV-ERB responsive genes by qPCR; assay type: cell-based, mouse; conditions: C2C12, 5uM; single replicates; listed as SR1267
From the text: We next determined whether STL1267 can regulate characterized REV-ERB modulated genes in cell lines expressing REV-ERB naturally. Five micromolar doses of both drugs were used in cell-based experiments from this point on. REV-ERB is an established component of the core molecular clock repressing the expression of core clock gene Bmal1[6],[27] as well as others[28],[29]. […] In skeletal muscle, REV-ERB agonism increases the expression of a wide variety of genes important in mitochondrial function.
The human hepatocellular carcinoma cell line, HepG2 cells (ATCC HB-8065), were cultured in 10% FBS 1% L-Glu MEM at 37 °C in a humidified atmosphere of 5% CO2. Prior to RNA extraction cells were treated with either DMSO or REV-ERB agonist for 24 h. The C2C12 proliferating mouse myoblast cells (ATCC, CRL-1772) were cultured in 10% FBS DMEM at 37 °C in a humidified atmosphere of 5% CO2. Prior to RNA extraction cells were treated with either DMSO or REV-ERB agonist for 24 h. Prior to crystal violet cytotoxicity assay, cells were treated with either DMSO or REV-ERB agonist for 48 h.
Mouse tissue was homogenized using a bullet blender. DNA/protein was removed by phase separation using BCP/chloroform. The supernatant (RNA containing fraction) was collected, and RNA was precipitated using isopropanol. The RNA pellets were washed with 75% ethanol and resolubilized in RNAse free water. The purity of the RNA was tested by agarose gel prior to cDNA synthesis. Total RNA was harvested from HepG2 and C2C12 using the RNeasy mini kit according to manufacturer’s instructions (Qiagen).
Isolated RNA was reverse transcribed into cDNA using the qScript^TMcDNA Synthesis kit according to the manufacturer’s instructions (QuantaBio). Quantative PCR (qPCR) was performed on a QuantStudio^TM 6 Flex or QuantStudio^TM 7 Flex (Life Technologies) using SYBR^TM Select Master Mix (Applied BioSystems) with select primers (Table S2). Gene expression was normalized to Ppia for all data sets. Oligonucleotide sequences are provided in Supplementary Table 2.

5-HT1A = biological target: T1, 5-HT1A (Homo sapiens, UniProt P08908); experiment: PDSP radioligand binding assay; conditions: read-out: RLBA Ki
T1 construct: NIMH Psychoactive Drug Screening Program (assay performed there)
From the text: (§1) Receptor RLBA Ki Receptor activity
(§2) Suppl ementary Tabl e 1. Speci fi ci ty of STL1267. […]

5-HT1B = biological target: T2, 5-HT1B (Homo sapiens, UniProt P28222); experiment: PDSP radioligand binding assay; conditions: read-out: RLBA Ki
T2 construct: NIMH Psychoactive Drug Screening Program (assay performed there)
From the text: as §1, §2

5-HT2A = biological target: T3, 5-HT2A (Homo sapiens, UniProt P28223); experiment: PDSP radioligand binding assay; conditions: read-out: RLBA Ki
T3 construct: NIMH Psychoactive Drug Screening Program (assay performed there)
From the text: as §1, §2

5-HT2C = biological target: T4, 5-HT2C (Homo sapiens, UniProt P28335); experiment: PDSP radioligand binding assay; conditions: read-out: RLBA Ki
T4 construct: NIMH Psychoactive Drug Screening Program (assay performed there)
From the text: as §1, §2

5-HT3 = biological target: T5, 5-HT3 (Homo sapiens, UniProt P46098); experiment: PDSP radioligand binding assay; conditions: read-out: RLBA Ki
T5 construct: NIMH Psychoactive Drug Screening Program (assay performed there)
From the text: as §1, §2

5-HT5A = biological target: T6, 5-HT5A (Homo sapiens, UniProt P47898); experiment: PDSP radioligand binding assay; conditions: read-out: RLBA Ki
T6 construct: NIMH Psychoactive Drug Screening Program (assay performed there)
From the text: as §1, §2

5-HT7A = biological target: T7, 5-HT7A (Homo sapiens, UniProt P34969); experiment: PDSP radioligand binding assay; conditions: read-out: RLBA Ki
T7 construct: NIMH Psychoactive Drug Screening Program (assay performed there)
From the text: as §1, §2

Alpha1A = biological target: T8, Alpha1A (Homo sapiens, UniProt P35348); experiment: PDSP radioligand binding assay; conditions: read-out: RLBA Ki
T8 construct: NIMH Psychoactive Drug Screening Program (assay performed there)
From the text: as §1, §2

Alpha1D = biological target: T9, Alpha1D (Homo sapiens, UniProt P25100); experiment: PDSP radioligand binding assay; conditions: read-out: RLBA Ki
T9 construct: NIMH Psychoactive Drug Screening Program (assay performed there)
From the text: as §1, §2

Alpha2A = biological target: T10, Alpha2A (Homo sapiens, UniProt P08913); experiment: PDSP radioligand binding assay; conditions: read-out: RLBA Ki
T10 construct: NIMH Psychoactive Drug Screening Program (assay performed there)
From the text: as §1, §2

Alpha2B = biological target: T11, Alpha2B (Homo sapiens, UniProt P18089); experiment: PDSP radioligand binding assay; conditions: read-out: RLBA Ki
T11 construct: NIMH Psychoactive Drug Screening Program (assay performed there)
From the text: as §1, §2

Alpha2C = biological target: T12, Alpha2C (Homo sapiens, UniProt P18825); experiment: PDSP radioligand binding assay; conditions: read-out: RLBA Ki
T12 construct: NIMH Psychoactive Drug Screening Program (assay performed there)
From the text: as §1, §2

BZP Rat Brain Site = experiment: PDSP radioligand binding assay; conditions: read-out: RLBA Ki
From the text: as §1, §2

Beta3 = Beta3 (Homo sapiens, UniProt P13945); experiment: PDSP radioligand binding assay; conditions: read-out: RLBA Ki
From the text: as §1, §2

D3 = D3 (Homo sapiens, UniProt P35462); experiment: PDSP radioligand binding assay; conditions: read-out: RLBA Ki
From the text: as §1, §2

DOR = DOR (Homo sapiens, UniProt P41143); experiment: PDSP radioligand binding assay; conditions: read-out: RLBA Ki
From the text: as §1, §2

H1 = H1 (Homo sapiens, UniProt P35367); experiment: PDSP radioligand binding assay; conditions: read-out: RLBA Ki
From the text: as §1, §2

H2 = H2 (Homo sapiens, UniProt P25021); experiment: PDSP radioligand binding assay; conditions: read-out: RLBA Ki
From the text: as §1, §2

M1 = M1 (Homo sapiens, UniProt P11229); experiment: PDSP radioligand binding assay; conditions: read-out: RLBA Ki
From the text: as §1, §2

M3 = M3 (Homo sapiens, UniProt P20309); experiment: PDSP radioligand binding assay; conditions: read-out: RLBA Ki
From the text: as §1, §2

M4 = M4 (Homo sapiens, UniProt P08173); experiment: PDSP radioligand binding assay; conditions: read-out: RLBA Ki
From the text: as §1, §2

M5 = M5 (Homo sapiens, UniProt P08912); experiment: PDSP radioligand binding assay; conditions: read-out: RLBA Ki
From the text: as §1, §2

MOR = MOR (Homo sapiens, UniProt P35372); experiment: PDSP radioligand binding assay; conditions: read-out: RLBA Ki
From the text: as §1, §2

NET = NET (Homo sapiens, UniProt P23975); experiment: PDSP radioligand binding assay; conditions: read-out: RLBA Ki
From the text: as §1, §2

PBR = PBR (Rattus norvegicus, UniProt P16257); experiment: PDSP radioligand binding assay; conditions: read-out: RLBA Ki
From the text: as §1, §2

T11 sequence (P18089 whole entry): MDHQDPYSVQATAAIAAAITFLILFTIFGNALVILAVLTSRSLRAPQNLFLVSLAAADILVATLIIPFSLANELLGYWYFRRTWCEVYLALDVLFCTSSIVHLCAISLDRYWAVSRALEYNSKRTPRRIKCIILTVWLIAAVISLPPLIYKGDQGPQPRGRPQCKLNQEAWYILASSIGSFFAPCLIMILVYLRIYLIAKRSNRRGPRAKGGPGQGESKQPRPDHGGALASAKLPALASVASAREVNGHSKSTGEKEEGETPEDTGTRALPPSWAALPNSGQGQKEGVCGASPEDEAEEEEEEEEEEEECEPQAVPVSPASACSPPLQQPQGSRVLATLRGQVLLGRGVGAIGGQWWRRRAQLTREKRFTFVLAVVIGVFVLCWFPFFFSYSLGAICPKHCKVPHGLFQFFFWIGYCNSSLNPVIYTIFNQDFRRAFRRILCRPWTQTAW
Chain of MOR (P35372 whole entry): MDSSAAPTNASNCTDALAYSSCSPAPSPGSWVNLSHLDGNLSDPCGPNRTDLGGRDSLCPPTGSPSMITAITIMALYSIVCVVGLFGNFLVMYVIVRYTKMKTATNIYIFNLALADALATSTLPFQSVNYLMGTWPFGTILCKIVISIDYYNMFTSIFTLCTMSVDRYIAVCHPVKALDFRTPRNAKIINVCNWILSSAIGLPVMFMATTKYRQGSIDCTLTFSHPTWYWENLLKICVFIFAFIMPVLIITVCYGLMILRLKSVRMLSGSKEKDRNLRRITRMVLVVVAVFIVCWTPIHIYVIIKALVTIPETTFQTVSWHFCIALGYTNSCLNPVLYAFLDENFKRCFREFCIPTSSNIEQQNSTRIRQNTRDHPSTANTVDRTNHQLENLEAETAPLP
T7 sequence (P34969 1-445 isoform P34969-2): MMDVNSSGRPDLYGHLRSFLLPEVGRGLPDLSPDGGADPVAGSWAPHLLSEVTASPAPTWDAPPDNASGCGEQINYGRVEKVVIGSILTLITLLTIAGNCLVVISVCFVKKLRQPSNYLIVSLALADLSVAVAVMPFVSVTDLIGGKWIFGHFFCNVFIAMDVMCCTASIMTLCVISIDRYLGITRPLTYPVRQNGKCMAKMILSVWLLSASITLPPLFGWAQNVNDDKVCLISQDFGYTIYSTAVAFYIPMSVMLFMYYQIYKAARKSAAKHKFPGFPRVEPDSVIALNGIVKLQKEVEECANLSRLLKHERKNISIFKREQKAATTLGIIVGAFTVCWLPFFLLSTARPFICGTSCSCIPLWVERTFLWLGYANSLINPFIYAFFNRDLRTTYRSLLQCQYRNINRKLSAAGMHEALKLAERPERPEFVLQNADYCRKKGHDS
T12 sequence (P18825 whole entry): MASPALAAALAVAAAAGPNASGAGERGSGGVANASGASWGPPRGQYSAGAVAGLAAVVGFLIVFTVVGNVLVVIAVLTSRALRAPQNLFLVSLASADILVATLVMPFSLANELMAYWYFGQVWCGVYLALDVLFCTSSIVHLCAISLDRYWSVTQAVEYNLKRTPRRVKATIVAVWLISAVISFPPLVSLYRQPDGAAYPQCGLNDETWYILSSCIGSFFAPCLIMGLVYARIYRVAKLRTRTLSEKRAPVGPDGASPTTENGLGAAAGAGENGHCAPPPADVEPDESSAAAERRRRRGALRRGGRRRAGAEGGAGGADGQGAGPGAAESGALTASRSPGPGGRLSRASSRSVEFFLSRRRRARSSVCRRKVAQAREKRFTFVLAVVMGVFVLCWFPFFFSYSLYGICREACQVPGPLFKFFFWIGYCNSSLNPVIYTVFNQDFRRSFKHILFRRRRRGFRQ
T5 sequence (P46098 24-478, species assumed): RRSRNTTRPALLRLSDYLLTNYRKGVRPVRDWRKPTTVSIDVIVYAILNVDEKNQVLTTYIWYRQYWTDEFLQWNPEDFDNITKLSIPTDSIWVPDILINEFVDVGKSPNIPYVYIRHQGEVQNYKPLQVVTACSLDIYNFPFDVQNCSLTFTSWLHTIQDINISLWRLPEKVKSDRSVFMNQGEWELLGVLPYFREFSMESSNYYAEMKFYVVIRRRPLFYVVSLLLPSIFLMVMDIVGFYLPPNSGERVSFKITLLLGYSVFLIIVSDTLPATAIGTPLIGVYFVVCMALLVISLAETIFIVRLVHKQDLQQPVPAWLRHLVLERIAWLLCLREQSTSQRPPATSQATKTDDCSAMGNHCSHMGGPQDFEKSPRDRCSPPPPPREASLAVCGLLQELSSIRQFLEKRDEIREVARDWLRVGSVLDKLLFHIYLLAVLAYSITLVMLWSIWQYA
Chain of H1 (P35367 whole entry): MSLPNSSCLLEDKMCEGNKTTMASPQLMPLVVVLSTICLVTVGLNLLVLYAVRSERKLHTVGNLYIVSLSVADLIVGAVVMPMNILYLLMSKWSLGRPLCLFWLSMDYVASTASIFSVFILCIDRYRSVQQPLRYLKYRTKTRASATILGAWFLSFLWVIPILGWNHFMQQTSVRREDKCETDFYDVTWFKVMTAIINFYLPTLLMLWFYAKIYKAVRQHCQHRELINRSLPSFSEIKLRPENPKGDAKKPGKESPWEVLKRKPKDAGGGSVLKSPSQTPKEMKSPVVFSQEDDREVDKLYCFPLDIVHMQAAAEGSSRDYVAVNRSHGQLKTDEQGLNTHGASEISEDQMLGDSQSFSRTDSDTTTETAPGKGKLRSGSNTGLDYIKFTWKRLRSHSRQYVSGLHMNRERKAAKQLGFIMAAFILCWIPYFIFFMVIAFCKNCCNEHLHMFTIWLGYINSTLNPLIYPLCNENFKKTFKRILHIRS
T4 sequence (P28335 33-458, species assumed): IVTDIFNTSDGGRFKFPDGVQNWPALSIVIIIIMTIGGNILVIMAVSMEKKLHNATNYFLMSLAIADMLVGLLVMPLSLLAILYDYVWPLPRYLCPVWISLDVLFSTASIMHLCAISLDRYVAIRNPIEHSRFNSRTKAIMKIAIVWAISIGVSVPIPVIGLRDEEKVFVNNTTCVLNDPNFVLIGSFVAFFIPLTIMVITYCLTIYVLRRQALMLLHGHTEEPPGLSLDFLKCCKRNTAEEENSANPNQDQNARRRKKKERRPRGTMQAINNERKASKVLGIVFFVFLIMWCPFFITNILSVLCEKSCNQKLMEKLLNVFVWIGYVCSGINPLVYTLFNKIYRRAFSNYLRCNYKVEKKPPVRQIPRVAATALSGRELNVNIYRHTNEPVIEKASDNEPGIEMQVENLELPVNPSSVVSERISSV
Chain of M3 (P20309 whole entry): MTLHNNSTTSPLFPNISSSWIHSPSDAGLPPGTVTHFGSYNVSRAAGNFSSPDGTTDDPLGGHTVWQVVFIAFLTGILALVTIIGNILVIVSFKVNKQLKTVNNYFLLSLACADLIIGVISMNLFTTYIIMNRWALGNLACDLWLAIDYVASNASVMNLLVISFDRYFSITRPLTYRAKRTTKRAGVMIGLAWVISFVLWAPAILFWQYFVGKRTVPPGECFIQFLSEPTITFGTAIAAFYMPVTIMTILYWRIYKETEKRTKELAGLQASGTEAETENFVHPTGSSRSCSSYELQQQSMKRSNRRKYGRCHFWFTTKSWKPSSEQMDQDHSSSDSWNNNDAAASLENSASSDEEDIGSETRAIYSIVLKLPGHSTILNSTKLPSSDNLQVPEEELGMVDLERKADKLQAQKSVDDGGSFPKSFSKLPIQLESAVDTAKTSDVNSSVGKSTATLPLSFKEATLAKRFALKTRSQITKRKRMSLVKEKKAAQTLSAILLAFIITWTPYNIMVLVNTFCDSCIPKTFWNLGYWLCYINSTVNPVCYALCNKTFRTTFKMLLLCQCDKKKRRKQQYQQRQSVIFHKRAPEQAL
T10 sequence (P08913 whole entry): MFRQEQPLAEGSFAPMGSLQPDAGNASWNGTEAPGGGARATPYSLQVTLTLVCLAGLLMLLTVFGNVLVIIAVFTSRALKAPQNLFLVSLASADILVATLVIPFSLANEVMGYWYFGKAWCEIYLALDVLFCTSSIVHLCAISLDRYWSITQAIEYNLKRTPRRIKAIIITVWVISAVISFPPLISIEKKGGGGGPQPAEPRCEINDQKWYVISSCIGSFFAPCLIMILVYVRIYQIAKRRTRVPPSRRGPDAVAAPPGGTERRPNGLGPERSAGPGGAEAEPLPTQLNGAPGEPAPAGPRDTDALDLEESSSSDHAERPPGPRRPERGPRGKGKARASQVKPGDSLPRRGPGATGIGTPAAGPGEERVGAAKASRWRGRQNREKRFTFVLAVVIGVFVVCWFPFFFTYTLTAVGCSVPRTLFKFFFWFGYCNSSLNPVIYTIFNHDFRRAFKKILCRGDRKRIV
T2 sequence (P28222 whole entry, species assumed): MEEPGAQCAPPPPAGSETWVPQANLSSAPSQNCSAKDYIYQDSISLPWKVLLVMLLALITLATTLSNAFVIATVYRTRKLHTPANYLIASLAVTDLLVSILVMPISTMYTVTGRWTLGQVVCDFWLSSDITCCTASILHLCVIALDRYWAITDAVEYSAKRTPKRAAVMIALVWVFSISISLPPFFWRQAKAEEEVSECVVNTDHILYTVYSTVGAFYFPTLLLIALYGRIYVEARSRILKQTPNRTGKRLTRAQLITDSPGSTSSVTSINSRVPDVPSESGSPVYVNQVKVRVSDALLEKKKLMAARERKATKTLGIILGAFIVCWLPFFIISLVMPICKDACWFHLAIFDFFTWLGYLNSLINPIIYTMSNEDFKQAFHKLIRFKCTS
Chain of D3 (P35462 whole entry): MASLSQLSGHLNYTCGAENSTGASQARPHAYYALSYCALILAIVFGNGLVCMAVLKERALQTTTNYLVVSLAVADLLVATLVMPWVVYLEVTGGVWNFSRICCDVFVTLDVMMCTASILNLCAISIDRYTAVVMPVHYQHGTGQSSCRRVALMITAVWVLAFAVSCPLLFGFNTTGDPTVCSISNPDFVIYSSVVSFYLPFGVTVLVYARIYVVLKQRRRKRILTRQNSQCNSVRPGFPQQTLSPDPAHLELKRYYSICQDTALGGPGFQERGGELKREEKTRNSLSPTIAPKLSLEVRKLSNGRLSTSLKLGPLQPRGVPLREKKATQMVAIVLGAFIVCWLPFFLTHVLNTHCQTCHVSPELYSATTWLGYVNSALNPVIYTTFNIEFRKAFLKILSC

Ki (5-HT1A): > 10 µM | Ki (5-HT1B): > 10 µM | Ki (5-HT2A): > 10 µM | Ki (5-HT2C): > 10 µM | Ki (5-HT3): > 10 µM | Ki (5-HT5A): > 10 µM | Ki (5-HT7A): > 10 µM | Ki (Alpha1A): > 10 µM | Ki (Alpha1D): > 10 µM | Ki (Alpha2A): > 10 µM | Ki (Alpha2B): > 10 µM | Ki (Alpha2C): > 10 µM | Ki (BZP Rat Brain Site): > 10 µM | Ki (Beta3): > 10 µM | Ki (D3): > 10 µM | Ki (DOR): > 10 µM | Ki (H1): > 10 µM | Ki (H2): > 10 µM | Ki (M1): > 10 µM | Ki (M3): > 10 µM | Ki (M4): > 10 µM | Ki (M5): > 10 µM | Ki (MOR): > 10 µM | Ki (NET): > 10 µM | Ki (PBR): > 10 µM
SMILES: Clc1nnc2ccc(Oc3ccccc3-c3ccccc3)nn12 [STL1267]
Ppargca1 relative gene expression (C2C12 cells): 8.425 and 7.081 and 5.71 | lcad relative gene expression (C2C12 cells): 25.4657 and 24.2235 and 14.2579 | lkb1 relative gene expression (C2C12 cells): 4.349 and 3.556 and 2.4615 | mt-Nd1 relative gene expression (C2C12 cells): 3.873 and 3.557 and 4.501 | mt-co1 relative gene expression (C2C12 cells): 7.748 and 5.296 and 5.742 | nampt relative gene expression (C2C12 cells): 4.112 and 2.537 and 1.9657 | scad relative gene expression (C2C12 cells): 25.4657 and 24.2235 and 14.2579 | sirt1 relative gene expression (C2C12 cells): 4.33 and 3.474 and 1.956 | vlcad relative gene expression (C2C12 cells): 14.2905 and 16.1127 and 7.599
